Experimental data published in ChEMBL document CHEMBL5653598, “In vivo antitumor activity of NVP-AEW541-A novel, potent, and selective inhibitor of the IGF-IR kinase” (Cancer Cell, 2004).
Activity calls are given as the source filed them. No cut-off for these calls is given here.

Tests used:
NWT-21 [1] = conditions: Mus musculus, dose 50.0 mg/kg, route po, time 1.0 hrs
Insulin receptor [2] = biological target: T1, Insulin receptor (Homo sapiens, UniProt P06213); test: Inhibition of GST tagged human Ins-R expressed in baculovirus at pH 7.6 measured after 20 mins in presence of gamma-[33P]-ATP by scintillation counter analysis
NWT-21 [3] = conditions: Mus musculus, dose 50.0 mg/kg, route po, time 1.0 hrs; remark: listed apart in the source
NWT-21 [4] = test: Antitumor activity against mouse NWT-21 cells xenografted in Hsd athymic nude mouse assessed as inhibition of tumor growth at 20 mg/kg, po bid administered for 7 weeks relative to control; type: functional; conditions: NWT-21, po, 1176 h
NWT-21 [5] = test: Antitumor activity against mouse NWT-21 cells xenografted in Hsd athymic nude mouse assessed as plasma insulin level at 50 mg/kg, po bid measured after 1 day; type: functional
[6] = biological target: T2, Epidermal growth factor receptor (Homo sapiens, UniProt P00533); test: Inhibition of GST tagged human HER-1 expressed in baculovirus at pH 7.5 measured after 15 mins in presence of gamma-[33P]-ATP by scintillation counter analysis
[7] = biological target: T3, Mast/stem cell growth factor receptor Kit (Homo sapiens, UniProt P10721); test: Inhibition of GST tagged c-Kit (unknown origin) expressed in baculovirus at pH 7.6 measured after 10 to 30 mins in presence of gamma-[33P]-ATP by scintillation counter analysis
NWT-21 [8] = test: Antitumor activity against mouse NWT-21 cells xenografted in Hsd athymic nude mouse assessed as inhibition of tumor growth at 50 mg/kg, po bid administered for 7 weeks relative to control; type: functional; conditions: NWT-21, 1176 h
[9] = biological target: Platelet-derived growth factor receptor beta (Homo sapiens, UniProt P09619); test: Inhibition of GST tagged PDGFR-beta (unknown origin) expressed in baculovirus at pH 7.6 measured after 10 to 30 mins in presence of gamma-[33P]-ATP by scintillation counter analysis
[10] = biological target: Vascular endothelial growth factor receptor 2 (Homo sapiens, UniProt P35968); test: Inhibition of GST tagged KDR (unknown origin) expressed in baculovirus at pH 7.6 measured after 10 to 30 mins in presence of gamma-[33P]-ATP by scintillation counter analysis
[11] = biological target: T2, Epidermal growth factor receptor; test: Inhibition of HER-1 in human A-431 cells assessed as inhibition of autophosphorylation of HER-1 incubated for 90 mins followed by EGF stimulation measured after 10 mins in presence of anti-EGFR Ab5 by ELISA analysis; type: cell-based
[12] = biological target: Vascular endothelial growth factor receptor 1 (Homo sapiens, UniProt P17948); test: Inhibition of GST tagged Flt-1 (unknown origin) expressed in baculovirus at pH 7.6 measured after 10 to 30 mins in presence of gamma-[33P]-ATP by scintillation counter analysis
[13] = biological target: T4, Receptor-type tyrosine-protein kinase FLT3 (Homo sapiens, UniProt P36888); test: Inhibition of GST tagged human Flt-3 expressed in baculovirus at pH 7.6 measured after 15 mins in presence of gamma-[33P]-ATP by scintillation counter analysis
T4 sequence (P36888 whole entry): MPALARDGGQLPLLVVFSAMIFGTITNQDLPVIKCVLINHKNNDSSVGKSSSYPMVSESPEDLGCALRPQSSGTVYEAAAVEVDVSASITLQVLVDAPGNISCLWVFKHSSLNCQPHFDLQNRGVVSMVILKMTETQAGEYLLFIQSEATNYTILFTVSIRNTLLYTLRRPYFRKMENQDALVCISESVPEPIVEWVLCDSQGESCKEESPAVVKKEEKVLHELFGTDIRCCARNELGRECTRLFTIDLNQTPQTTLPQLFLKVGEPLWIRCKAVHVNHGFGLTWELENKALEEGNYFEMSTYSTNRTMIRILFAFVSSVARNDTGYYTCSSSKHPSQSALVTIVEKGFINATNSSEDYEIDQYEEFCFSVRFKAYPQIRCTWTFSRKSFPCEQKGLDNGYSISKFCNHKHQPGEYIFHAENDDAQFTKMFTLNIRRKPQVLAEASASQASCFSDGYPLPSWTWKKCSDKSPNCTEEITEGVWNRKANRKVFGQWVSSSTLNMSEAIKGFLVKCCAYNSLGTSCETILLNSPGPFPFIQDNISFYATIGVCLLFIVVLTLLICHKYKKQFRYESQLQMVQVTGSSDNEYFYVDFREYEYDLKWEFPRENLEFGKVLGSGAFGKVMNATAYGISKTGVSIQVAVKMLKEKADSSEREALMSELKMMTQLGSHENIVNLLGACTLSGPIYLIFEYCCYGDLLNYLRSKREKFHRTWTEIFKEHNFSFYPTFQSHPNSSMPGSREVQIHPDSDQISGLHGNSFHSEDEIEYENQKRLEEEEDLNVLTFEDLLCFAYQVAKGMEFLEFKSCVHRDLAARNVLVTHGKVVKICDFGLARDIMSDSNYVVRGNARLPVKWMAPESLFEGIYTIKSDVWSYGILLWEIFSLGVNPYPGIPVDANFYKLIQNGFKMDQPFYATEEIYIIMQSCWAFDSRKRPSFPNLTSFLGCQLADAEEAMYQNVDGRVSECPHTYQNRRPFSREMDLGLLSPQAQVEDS

[14] = biological target: Vascular endothelial growth factor receptor 3 (Homo sapiens, UniProt P35916); test: Inhibition of GST tagged human Flt-4 expressed in baculovirus at pH 7.6 measured after 15 mins in presence of gamma-[33P]-ATP by scintillation counter analysis
[15] = biological target: Receptor tyrosine-protein kinase erbB-4 (Homo sapiens, UniProt Q15303); test: Inhibition of GST tagged human HER-4 expressed in baculovirus at pH 7.5 measured after 15 mins in presence of gamma-[33P]-ATP by scintillation counter analysis
NWT-21 [16] = conditions: Mus musculus, dose 50.0 mg/kg, route po, time 1.0 hrs; remark: listed apart in the source
Angiopoietin-1 receptor = Angiopoietin-1 receptor (Homo sapiens, UniProt Q02763); test: Inhibition of GST tagged Tek (unknown origin) expressed in baculovirus at pH 7.6 measured after 10 to 30 mins in presence of gamma-[33P]-ATP by scintillation counter analysis
[17] = Inhibition of rabbit PKA expressed in baculovirus at pH 7.0 measured after 20 mins in presence of gamma-[33P]-ATP by scintillation counter analysis; set-up: species or system Oryctolagus cuniculus
[18] = biological target: RAC-alpha serine/threonine-protein kinase (Homo sapiens, UniProt P31749); test: Inhibition of human PKB expressed in baculovirus at pH 7.2 measured after 30 mins in presence of gamma-[33P]-ATP by scintillation counter analysis
Insulin receptor [19] = biological target: T1, Insulin receptor; test: Inhibition of Ins-R in A14 [Human melanoma] cells assessed as inhibition of autophosphorylation of Ins-R incubated for 90 mins followed by insulin stimulation measured after 10 mins by ELISA analysis; type: cell-based
[20] = biological target: RAF proto-oncogene serine/threonine-protein kinase (Homo sapiens, UniProt P04049); test: Inhibition of GST-tagged c-Raf-1 (unknown origin) expressed in baculovirus infected in Sf21 cells at pH 7.5 measured after 30 mins in presence of gamma-[33P]-ATP by scintillation counter analysis
[21] = biological target: Proto-oncogene tyrosine-protein kinase Src (Gallus gallus, UniProt P00523); test: Inhibition of GST tagged chicken c-Src expressed in baculovirus at pH 7.5 measured after 10 mins in presence of gamma-[33P]-ATP by scintillation counter analysis
Mus musculus [22] = species: Mus musculus; conditions: Harlan, dose 50.0 mg/kg, route po, time 1.0 hrs
[23] = Toxicity in Hsd athymic nude mouse xenografted with NWT-21 cells assessed as body weight at 20 to 50 mg/kg, po bid administered for 7 weeks; type: organism-based; conditions: in vivo, 1176 h, dose 20-50 mg/kg
NWT-21 [24] = test: Antitumor activity against mouse NWT-21 cells xenografted in Hsd athymic nude mouse assessed as plasma insulin level at 50 mg/kg, po bid measured after 10 day; type: functional
[25] = Inhibition of PDGFR (unknown origin) in mouse BALB/3T3 clone A31 cells assessed as inhibition of autophosphorylation of PDGFR incubated for 90 mins followed by PDGF BB stimulation measured after 10 mins in presence of anti-PDGF-R Receptor Type A/B antibody by ELISA analysis; type: cell-based; conditions: Homo sapiens
[26] = biological target: Hepatocyte growth factor receptor (Homo sapiens, UniProt P08581); test: Inhibition of GST tagged c-Met (unknown origin) expressed in baculovirus at pH 7.6 measured after 10 to 30 mins in presence of gamma-[33P]-ATP by scintillation counter analysis
[27] = biological target: T3, Mast/stem cell growth factor receptor Kit; test: Inhibition of c-Kit (unknown origin) in human GIST882 cells assessed as inhibition of autophosphorylation of c-Kit incubated for 90 mins in presence of anti-CD117 antibody by ELISA analysis; type: cell-based
[28] = biological target: Fibroblast growth factor receptor 1 (Homo sapiens, UniProt P11362); test: Inhibition of GST tagged FGFR-1 (unknown origin) expressed in baculovirus at pH 7.6 measured after 10 to 30 mins in presence of gamma-[33P]-ATP by scintillation counter analysis
NWT-21 [29] = test: Antitumor activity against mouse NWT-21 cells xenografted in Hsd athymic nude mouse assessed as inhibition of tumor growth at 30 mg/kg, po bid administered for 7 weeks relative to control; type: functional; conditions: NWT-21, 1176 h, read-out: GI
[30] = Inhibition of starfish Cdk1/cycB expressed in baculovirus at pH 8.0 measured after 30 mins in presence of gamma-[33P]-ATP by scintillation counter analysis; set-up: species or system Asteroidea
Mus musculus [31] = species: Mus musculus; conditions: Harlan, dose 50.0 mg/kg, route po, time 1.0 hrs; remark: listed apart in the source
[32] = biological target: Receptor tyrosine-protein kinase erbB-2 (Homo sapiens, UniProt P04626); test: Inhibition of GST tagged human HER-2 expressed in baculovirus at pH 7.5 measured after 15 mins in presence of gamma-[33P]-ATP by scintillation counter analysis
Mus musculus [33] = species: Mus musculus; conditions: Harlan, dose 50.0 mg/kg, route po, time 1.0 hrs; remark: listed apart in the source
NWT-21 [34] = test: Antitumor activity against mouse NWT-21 cells xenografted in Hsd athymic nude mouse assessed as plasma glucose level at 50 mg/kg, po bid measured after 1 day; type: functional
[35] = biological target: Tyrosine-protein kinase ABL1 (Homo sapiens, UniProt P00519); test: Inhibition of GST tagged c-Abl (unknown origin) expressed in baculovirus infected Sf9 cells at pH 7.5 measured after 10 mins in presence of gamma-[33P]-ATP by scintillation counter analysis
NWT-21 [36] = conditions: Mus musculus, dose 50.0 mg/kg, route po, time 1.0 hrs; remark: listed apart in the source
NWT-21 [37] = test: Antitumor activity against mouse NWT-21 cells xenografted in Hsd athymic nude mouse assessed as plasma glucose level at 50 mg/kg, po bid measured after 10 days; type: functional; conditions: time 10 day

T1 sequence (P06213 28-758 limits assumed): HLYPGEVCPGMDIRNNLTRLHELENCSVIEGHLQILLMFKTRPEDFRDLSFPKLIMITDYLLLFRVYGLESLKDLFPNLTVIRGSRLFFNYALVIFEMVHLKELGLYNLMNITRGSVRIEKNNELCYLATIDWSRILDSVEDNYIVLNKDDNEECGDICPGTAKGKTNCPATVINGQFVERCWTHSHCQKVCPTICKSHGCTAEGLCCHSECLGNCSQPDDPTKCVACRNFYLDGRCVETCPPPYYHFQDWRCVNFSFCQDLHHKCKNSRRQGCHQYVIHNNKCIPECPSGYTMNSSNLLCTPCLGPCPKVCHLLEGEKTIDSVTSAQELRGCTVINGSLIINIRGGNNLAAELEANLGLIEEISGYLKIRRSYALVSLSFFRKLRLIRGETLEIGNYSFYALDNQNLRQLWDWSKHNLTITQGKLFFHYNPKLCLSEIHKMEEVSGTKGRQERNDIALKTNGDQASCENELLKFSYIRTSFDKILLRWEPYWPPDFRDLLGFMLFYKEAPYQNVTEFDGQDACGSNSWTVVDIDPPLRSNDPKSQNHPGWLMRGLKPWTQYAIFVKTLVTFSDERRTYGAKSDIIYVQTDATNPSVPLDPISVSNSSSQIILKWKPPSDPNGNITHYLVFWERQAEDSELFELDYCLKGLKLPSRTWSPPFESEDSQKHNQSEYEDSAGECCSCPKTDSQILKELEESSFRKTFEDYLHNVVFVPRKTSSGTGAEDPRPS
T1 sequence (P06213 763-1382 limits assumed): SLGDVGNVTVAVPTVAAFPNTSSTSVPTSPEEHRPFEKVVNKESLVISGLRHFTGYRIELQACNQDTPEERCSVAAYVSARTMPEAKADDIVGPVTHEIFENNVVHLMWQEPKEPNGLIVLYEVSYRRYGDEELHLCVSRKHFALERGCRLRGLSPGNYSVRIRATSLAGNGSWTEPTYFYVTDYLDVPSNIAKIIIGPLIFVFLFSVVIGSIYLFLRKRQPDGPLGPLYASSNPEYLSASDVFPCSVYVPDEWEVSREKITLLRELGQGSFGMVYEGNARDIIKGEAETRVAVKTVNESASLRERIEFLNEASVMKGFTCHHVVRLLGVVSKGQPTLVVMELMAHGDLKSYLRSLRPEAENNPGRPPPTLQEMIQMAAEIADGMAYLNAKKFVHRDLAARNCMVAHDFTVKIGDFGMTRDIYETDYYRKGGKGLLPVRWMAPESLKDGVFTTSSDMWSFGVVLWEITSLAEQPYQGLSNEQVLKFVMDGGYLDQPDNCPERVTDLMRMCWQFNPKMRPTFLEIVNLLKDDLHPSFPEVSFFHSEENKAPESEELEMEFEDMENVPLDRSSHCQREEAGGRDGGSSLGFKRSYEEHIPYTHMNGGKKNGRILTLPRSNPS
T2 sequence (P00533 whole entry): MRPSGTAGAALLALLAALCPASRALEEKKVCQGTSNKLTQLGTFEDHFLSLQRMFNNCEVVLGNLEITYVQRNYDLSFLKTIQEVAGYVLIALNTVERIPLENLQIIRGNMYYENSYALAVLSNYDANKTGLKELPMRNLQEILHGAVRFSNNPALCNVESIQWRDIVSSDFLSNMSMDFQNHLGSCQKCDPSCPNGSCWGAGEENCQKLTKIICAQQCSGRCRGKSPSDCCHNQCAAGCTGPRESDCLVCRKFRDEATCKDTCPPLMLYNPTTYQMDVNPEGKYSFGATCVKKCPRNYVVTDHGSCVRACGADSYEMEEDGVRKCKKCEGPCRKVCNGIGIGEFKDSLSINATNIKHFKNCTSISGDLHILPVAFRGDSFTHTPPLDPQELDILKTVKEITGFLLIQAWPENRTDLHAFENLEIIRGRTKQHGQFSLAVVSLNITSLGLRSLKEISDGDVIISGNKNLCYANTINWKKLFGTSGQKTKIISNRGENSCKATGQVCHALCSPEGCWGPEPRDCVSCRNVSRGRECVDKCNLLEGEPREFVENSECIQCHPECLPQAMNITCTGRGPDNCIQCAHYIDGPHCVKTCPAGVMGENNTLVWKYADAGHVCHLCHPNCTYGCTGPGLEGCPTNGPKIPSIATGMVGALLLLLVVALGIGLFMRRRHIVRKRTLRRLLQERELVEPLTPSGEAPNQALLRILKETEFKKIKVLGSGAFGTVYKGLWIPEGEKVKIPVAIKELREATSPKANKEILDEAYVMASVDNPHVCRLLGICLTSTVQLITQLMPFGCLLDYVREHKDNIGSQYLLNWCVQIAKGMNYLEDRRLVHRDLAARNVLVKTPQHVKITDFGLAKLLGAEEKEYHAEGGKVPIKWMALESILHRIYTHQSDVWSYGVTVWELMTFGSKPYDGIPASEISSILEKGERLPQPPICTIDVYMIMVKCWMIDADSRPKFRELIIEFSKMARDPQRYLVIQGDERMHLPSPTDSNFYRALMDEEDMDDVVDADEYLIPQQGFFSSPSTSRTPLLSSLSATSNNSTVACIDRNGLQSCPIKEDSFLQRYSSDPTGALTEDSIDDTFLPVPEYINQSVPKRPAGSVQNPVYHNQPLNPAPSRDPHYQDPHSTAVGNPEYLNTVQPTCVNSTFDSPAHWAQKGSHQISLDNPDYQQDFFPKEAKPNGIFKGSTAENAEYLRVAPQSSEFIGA
T3 sequence (P10721 whole entry): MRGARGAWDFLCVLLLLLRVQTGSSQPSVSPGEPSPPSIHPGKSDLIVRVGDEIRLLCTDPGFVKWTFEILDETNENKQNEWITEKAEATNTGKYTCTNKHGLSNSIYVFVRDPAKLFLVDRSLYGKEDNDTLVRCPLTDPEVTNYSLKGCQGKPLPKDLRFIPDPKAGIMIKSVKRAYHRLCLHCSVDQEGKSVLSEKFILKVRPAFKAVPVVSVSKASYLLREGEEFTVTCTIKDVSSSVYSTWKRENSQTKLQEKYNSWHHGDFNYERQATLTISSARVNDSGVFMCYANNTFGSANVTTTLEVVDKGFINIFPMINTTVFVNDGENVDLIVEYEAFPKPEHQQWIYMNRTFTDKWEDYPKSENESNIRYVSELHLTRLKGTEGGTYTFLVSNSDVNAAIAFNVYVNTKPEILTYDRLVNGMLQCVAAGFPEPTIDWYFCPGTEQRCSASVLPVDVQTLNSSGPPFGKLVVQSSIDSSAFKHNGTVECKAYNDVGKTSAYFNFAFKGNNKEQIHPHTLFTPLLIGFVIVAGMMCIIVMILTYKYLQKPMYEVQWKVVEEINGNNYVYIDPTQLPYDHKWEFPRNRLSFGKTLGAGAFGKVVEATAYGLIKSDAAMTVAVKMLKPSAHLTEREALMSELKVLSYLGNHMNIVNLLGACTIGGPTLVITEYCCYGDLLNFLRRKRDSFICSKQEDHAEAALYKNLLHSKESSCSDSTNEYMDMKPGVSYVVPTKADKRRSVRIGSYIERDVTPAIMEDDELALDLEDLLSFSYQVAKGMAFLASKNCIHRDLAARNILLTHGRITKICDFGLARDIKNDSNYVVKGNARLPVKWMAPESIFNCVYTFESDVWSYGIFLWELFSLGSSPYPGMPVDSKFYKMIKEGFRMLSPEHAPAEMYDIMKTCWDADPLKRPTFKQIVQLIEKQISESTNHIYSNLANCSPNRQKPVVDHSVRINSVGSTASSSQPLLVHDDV
Sequence of Tyrosine-protein kinase ABL1 (P00519 whole entry): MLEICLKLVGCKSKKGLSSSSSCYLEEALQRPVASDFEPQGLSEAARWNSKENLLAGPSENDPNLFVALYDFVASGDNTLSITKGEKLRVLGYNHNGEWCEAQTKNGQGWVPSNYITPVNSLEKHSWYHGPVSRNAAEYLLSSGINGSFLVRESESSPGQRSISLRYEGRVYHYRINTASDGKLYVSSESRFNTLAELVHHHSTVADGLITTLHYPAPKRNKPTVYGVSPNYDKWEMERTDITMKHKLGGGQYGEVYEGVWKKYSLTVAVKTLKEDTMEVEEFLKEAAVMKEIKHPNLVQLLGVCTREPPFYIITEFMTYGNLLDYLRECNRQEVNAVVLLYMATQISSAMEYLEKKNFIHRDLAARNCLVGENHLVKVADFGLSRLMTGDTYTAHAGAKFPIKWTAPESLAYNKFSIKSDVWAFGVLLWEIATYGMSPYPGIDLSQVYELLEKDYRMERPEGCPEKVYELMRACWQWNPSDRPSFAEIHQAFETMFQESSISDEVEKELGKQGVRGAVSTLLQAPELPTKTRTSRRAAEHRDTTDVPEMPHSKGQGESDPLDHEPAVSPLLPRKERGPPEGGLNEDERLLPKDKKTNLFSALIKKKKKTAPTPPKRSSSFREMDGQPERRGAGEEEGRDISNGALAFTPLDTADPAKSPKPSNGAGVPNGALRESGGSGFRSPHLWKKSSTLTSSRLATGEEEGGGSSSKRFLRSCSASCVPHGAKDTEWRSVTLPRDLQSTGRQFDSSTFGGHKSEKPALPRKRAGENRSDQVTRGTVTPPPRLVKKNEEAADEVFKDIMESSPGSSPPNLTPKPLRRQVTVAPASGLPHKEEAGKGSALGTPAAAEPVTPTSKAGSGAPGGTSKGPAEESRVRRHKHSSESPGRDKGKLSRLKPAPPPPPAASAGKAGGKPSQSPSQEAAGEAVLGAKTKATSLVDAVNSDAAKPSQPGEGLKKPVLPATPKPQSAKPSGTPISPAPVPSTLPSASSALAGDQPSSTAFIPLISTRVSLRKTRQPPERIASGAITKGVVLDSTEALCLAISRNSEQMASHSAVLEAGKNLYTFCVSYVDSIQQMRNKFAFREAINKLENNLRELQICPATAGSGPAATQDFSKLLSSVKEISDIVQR

SMILES: Nc1ncnc2c1c(-c1cccc(OCc3ccccc3)c1)cn2[C@H]1C[C@@H](CN2CCC2)C1
- inhibition (NWT-21 [1]): Active
- IC50 (Insulin receptor [2]): 0.14 µM
- inhibition (NWT-21 [3]): Active
- T/C at 20 mg/kg (NWT-21 [4]): 32%
- Activity (NWT-21 [5]): 14.4 uU/ml
- IC50 [6]: 5.8 µM
- IC50 [7]: 3.3 µM
- T/C at 50 mg/kg (NWT-21 [8]): 14%
- IC50 [9]: 2 µM
- IC50 [10]: 2.3 µM
- IC50 [11]: > 10 µM
- IC50 [12]: 0.6 µM
- IC50 [13]: 0.42 µM
- IC50 [14]: 2.4 µM
- IC50 [15]: 1.4 µM
- inhibition (NWT-21 [16]): Active
- IC50 (Angiopoietin-1 receptor): 0.53 µM
- IC50 [17]: > 10 µM
- IC50 [18]: > 10 µM
- IC50 (Insulin receptor [19]): 2.3 µM
- IC50 [20]: > 10 µM
- IC50 [21]: 2.4 µM
- inhibition (Mus musculus [22]): Active
- Activity [23]: Non-Toxic
- Activity (NWT-21 [24]): 28.9 uU/ml
- IC50 [25]: > 10 µM
- IC50 [26]: 3.8 µM
- IC50 [27]: > 5 µM
- IC50 [28]: 4.1 µM
- inhibition in vivo at 30 mg/kg (NWT-21 [29]): 28%
- IC50 [30]: > 10 µM
- inhibition (Mus musculus [31]): Active
- IC50 [32]: 4.1 µM
- inhibition (Mus musculus [33]): Active
- Activity (NWT-21 [34]): 197.4 mg/dL
- IC50 [35]: > 10 µM
- inhibition (NWT-21 [36]): Active
- Activity (NWT-21 [37]): 204.4 mg/dL
